Assay [1] relates to Burkitt's lymphoma (CA 46, ATCC No. CRL 1648). Kind of assay: Inhibition of tumor cell growth, MTT-assay, Burkitt's lymphoma. The format is cell-based, human. Conditions: read-out: IC50 Burkitts. As to the method: (§1) The KB cell lines were grown in Dulbecco's modified Eagle's medium (4,5 g glucose/l). To the cultures of KB-C1 cells 1 μg of colchicine/ml, and to the hydroxyurea-resistant KB-HU cells 1 mM hydroxyurea was added every other week. […] 3,000 - 10,000 cells in 200 μl medium were seeded per well into 96-well plates. […] Approximately 10,000 cells per 100 μl were seeded in 96-well plates. […] The substances were dissolved in dimethylsulfoxide (DMSO). […] Subsequently, the samples were fixed, washed, and the absorption was determined by a microplate reader.
(In general: Tetrazolium dyes change colour on reduction, which living cells bring about.)

The test system of assay [2] is K562 (chronic myelogenous leukemia). Kind of assay: Inhibition of tumor cell growth, K562. The conditions noted are these: 72 hours. The format is cell-based, human. As to the method: In order to obtain information about the growth-inhibiting action on tumor cells, the inhibition of the growth of the following human tumor cells was determined: Burkitt's lymphoma (CA 46, ATCC No. CRL 1648), CCRF-CEM (acute lymphoblastic leukemia, ATCC No. CCL 119), K562 (chronic myelogenous leukemia, ATTC No. CCL 243), HeLa (epitheloid cervix carcinoma, ATCC No. CCL 2), MEXF 276L (melanoma), HT-29 (colon adenocarcinoma, ATCC No. HTB 38), KB-3-1 (human oral epidermoid carcinoma, CTCC No. CCL 17), KB-HU hydroxyurea-resistant, multidrug-resistant KB-C1 cells (Akiyama et al, Cell. Mol Genet., 11:117–126, 1985). Burkitt's, CCRF-CEM, HeLa and MEXF 276L cells were grown in RPMI 1640, HT-29 cells in McCoy's 5A medium. The KB cell lines were grown in Dulbecco's modified Eagle's medium (4,5 g glucose/l). To the cultures of KB-C1 cells 1 μg of colchicine/ml, and to the hydroxyurea-resistant KB-HU cells 1 mM hydroxyurea was added every other week. The media were supplemented with 10% fetal calf serum (except Burkitt's lymphoma cells with 15%), 2 mM glutamine, 50 units/ml penicillin and 50 μg/ml streptomycin. Inhibition of growth of HeLa, HT-29, KB and MEXF 276L cells was detected by the SRB-assay (Skehan et al, J. Natl Cancer Inst., 82:1107–1112, 1990). 3,000 - 10,000 cells in 200 μl medium were seeded per well into 96-well plates. Dose-response curves for CCRF-CEM and Burkitt's lymphoma cells were effected by an MTT-assay (Mosman, J. Immunol Methods, 65:55–63, 1983) from Boehringer Mannheim, Mannheim, Germany. Approximately 10,000 cells per 100 μl were seeded in 96-well plates. After an initial incubation of four hours, various substance concentrations were added, and the cells were incubated at 37° C. in a water-saturated atmosphere of 95% air and 5% CO2 for 72 hours. The substances were dissolved in dimethylsulfoxide (DMSO). The concentration of DMSO was 0.5%, and this was not toxic to the cells. Subsequently, the samples were fixed, washed, and the absorption was determined by a microplate reader.

The test system of assay [3] is HeLa (epitheloid cervix carcinoma). Kind of assay: Inhibition of tumor cell growth, SRB-assay, HeLa. The conditions noted are these: read-out: IC50 HeLa (converted). The format is cell-based, human. Background: The SRB assay estimates cell density from bound dye.
For assay [4], the system named is HT-29 (colon adenocarcinoma). Kind of assay: Inhibition of tumor cell growth, SRB-assay, HT-29. The format is cell-based, human. Conditions: read-out: IC50 HT-29 (converted). As to the method:
as §1

In assay [5] the test system is human tumor grafts (cell lines of FIG. 1). Kind of assay: Colony forming assay (two-layer soft agar). The conditions noted are these: for tumor type selectivity: colony forming assay, IC70 pattern, FIG. 1; for IC50 / IC90 / Mean IC70: mean values of all cell lines tested in FIG. 1, continuous exposure 3 to 6 days. It is filed as cell-based. As to the method:
An excellent correlation of drug response in patients and the colony forming assay has been found (Scholz et al, Eur. J. Cancer 25:901–905, 1990). Solid human tumors were grown as grafts in nude mice, removed from the latter, mechanically comminuted and subsequently incubated in an enzyme cocktail consisting of collagenase (1.2–1.8 U/ml), DNAse (375 U/ml) and hyaluronidase (29 U/ml) in RPMI 1640 medium at 37° C. for 30 minutes. The cell mixture was passed through sieves of 200 μm and 50 μm mesh size and washed thereafter twice with PBS (phosphate buffered saline). The percentage of live cells was determined using a Neubauer counting chamber and trypan blue staining.
The colony forming assay was performed according to a two-layer agar technique introduced and modified by Hamburger and Salmon (Hamburger and Salmon, Science, 197:461–463, 1977). The bottom layer consisted of 0.2 ml of Iscoves's Modified Dulbecco's medium with 20% fetal calf serum and 0.75% agar. 8×10^3 to 1.6×10^4 cells were added to the same medium and 0.4% agar and plated in 24-multiwell plates onto the base layer. One day after the plating (with continuous exposure), the substances were added in 0.2 ml medium. Each plate included six controls containing the solvent only, and the treated groups contained 6 concentrations of the substances, each in triplicate. Cultures were incubated at 37° C. and 7% CO2 in a water-saturated atmosphere for 3 to 6 days, depending on the doubling time of the tumor cells. At the time of maximum colony formation with a size of […], counts were performed with an automatic image analysis system. 24 h prior to counting, live colonies were stained with a sterile aqueous solution of 2-(4-iodophenyl)-3-(4-nitrophenyl)-5-phenyltetrazolium chloride (1 mg/ml, 100 μl/well). The results of the tests are given in FIG. 1, and in the following Table 5, respectively. […] Columns pointing towards the right show a slighter than average activity.

For assay [6], the system named is MEXF 276L (melanoma). Kind of assay: Inhibition of tumor cell growth, SRB-assay, MEXF 276L. Conditions: Table 2, 72 hours, read-out: IC50 MEXF276L. It is filed as cell-based, human. As to the method: as §1
In assay [7] the test system is CCRF-CEM (acute lymphoblastic leukemia). Kind of assay: Inhibition of tumor cell growth, MTT-assay, CCRF-CEM. It is filed as cell-based, human. The conditions noted are these: Table 2, 72 hours.

Where two headings read alike, the source gives them in different places.

By IC50 is commonly meant the concentration that gives 50% inhibition. `CCC(=NNc1nc2ccccc2n1C)c1ccccn1` [Ia-8]: the IC50 in assay [1] (Table 1, 72 hours) is 1.01 µM; in assay [2] (Table 1), 0.09 µM; in assay [3] (Table 1, 72 hours) it was 0.02 µM; in assay [4] (Table 1, 72 hours), 11 µM.
As usually defined, the IC90 is the concentration needed for an effect of 90%. As for `CC(C)C(=NNc1nc2ccccc2n1C)c1ccccn1` [Ia-16], the IC50 is 0.05 µM in assay [2] (Table 1); 0.006 µM in assay [3] (Table 1, 72 hours); 5.58 µM in assay [4] (Table 1, 72 hours); 0.188 µM in assay [5]. Further, in assay [5], the tumor type selectivity result is “selectivity for colon, breast, ovarian, and uterus tumors”. In addition, it took 3.77 µM to reach the 90% level in assay [5] (IC90). In assay [5], the “Mean IC70” value turned out to be 0.521 µM.
On to `Cn1c(NN=C(c2ccccn2)C2CC2)nc2ccccc21` [Ia-24, E/Z-Cyclopropyl-(2-pyridyl)-methanone-(1-methyl-1H-benzo[d]imidazol-2-yl)-hydrazone], for which the IC50 was 0.04 µM in assay [2] (Table 1); 0.002 µM in assay [3] (Table 1, 72 hours); 2.88 µM in assay [4] (Table 1, 72 hours); 0.138 µM in assay [5]. Moreover, the tumor type selectivity result in assay [5] is “selectivity for colon, breast, ovarian, and uterus tumors”. Also, in assay [5], it took 3.14 µM to reach the 90% level (IC90). In assay [5], the “Mean IC70” value is 0.387 µM.
With `Cn1c(NN=C(c2ccccc2)c2ccccn2)nc2ccccc21` [Ia-29], the IC50 in assay [2] (Table 1) turned out to be 0.06 µM. Further, the IC50 in assay [3] (Table 1, 72 hours) is 0.009 µM. Further, the IC50 in assay [4] (Table 1, 72 hours) is 8.74 µM. Also, in assay [5], the tumor type selectivity result was “selectivity for colon, breast, ovarian, and uterus tumors”; the IC50 was found to be 0.294 µM; the 90% effect level (IC90) was put at 4.66 µM; the “Mean IC70” value worked out at 0.741 µM.
On to `Cn1c(NN=C(Cc2ccccc2)c2ccccn2)nc2ccccc21` [Ia-33], for which the IC50 is 0.12 µM in assay [2] (Table 1); 0.024 µM in assay [3] (Table 1, 72 hours); 14.1 µM in assay [4] (Table 1, 72 hours).
For `Cn1c(NN=C(c2ccccn2)c2ccccn2)nc2ccccc21` [Ia-37], in that order: 0.03 µM, 0.09 µM and 4.64 µM.
For the molecule `CC(=NNc1nc2ccccc2o1)c1ccncn1` [Ib-8], the IC50 in assay [1] (Table 2, 72 hours) is 0.14 µM; in assay [3] (Table 2, 72 hours) it was 0.41 µM; in assay [4] (Table 2, 72 hours), 0.23 µM; in assay [6], 1.3 µM; in assay [7] it was 0.34 µM.
Turning to `CC(=NNc1nc2ccccc2[nH]1)c1cc(C)ncn1` [Ib-9], the IC50 in assay [1] (Table 2, 72 hours) was 0.39 µM; in assay [3] (Table 2, 72 hours), 0.89 µM; in assay [4] (Table 2, 72 hours), 0.36 µM; in assay [6] it was 1.14 µM; in assay [7], 0.66 µM.
Take `CC(=NNc1nc2ccccc2o1)c1cc(C)ncn1` [Ib-10]: the 50% inhibitory concentration (IC50) in assay [1] (Table 2, 72 hours) was 0.04 µM; in assay [3] (Table 2, 72 hours), 0.21 µM; in assay [4] (Table 2, 72 hours), 0.12 µM; in assay [6] it was 1.22 µM; in assay [7] it was 0.22 µM.
With `CC(=NNc1nc2ccccc2[nH]1)c1nccnc1C` [Ib-14], the IC50 in assay [1] (Table 2, 72 hours) was 3.37 µM; in assay [3] (Table 2, 72 hours) it was 3.53 µM; in assay [4] (Table 2, 72 hours), 2.23 µM; in assay [6], 4.24 µM; in assay [7] it was 2.17 µM.
As to `CC(=NNc1nc2ccccc2o1)c1nccnc1C` [Ib-15], the IC50 in assay [1] (Table 2, 72 hours) is 0.91 µM; in assay [3] (Table 2, 72 hours), 1.87 µM; in assay [4] (Table 2, 72 hours), 2.15 µM; in assay [6], 5.38 µM; in assay [7], 1.3 µM.
The like results for `CC(=NNc1nc2ccccc2[nH]1)c1cnc(C)cn1` [Ib-16] were, in that order, 1.22 µM, 1.49 µM, 0.88 µM, 2 µM and 0.84 µM.
Take `CC(=NNc1nc2ccccc2o1)c1cnc(C)cn1` [Ib-17]: the IC50 was 0.15 µM in assay [1] (Table 2, 72 hours); 0.37 µM in assay [3] (Table 2, 72 hours); 0.28 µM in assay [4] (Table 2, 72 hours); 1.66 µM in assay [6]; 0.62 µM in assay [7].
`CC(=NNc1nc2ccccc2o1)c1ccc2ccccc2n1` [Ib-19]: the IC50 in assay [1] (Table 2, 72 hours) was 5.49 µM; in assay [3] (Table 2, 72 hours), 4.53 µM; in assay [4] (Table 2, 72 hours), 7.76 µM; in assay [6], more than 10 µM; in assay [7] it was 7.04 µM.
For the molecule `CC(=NNc1nc2ccccc2o1)c1nccc2ccccc12` [Ib-21], the IC50 was 0.2 µM in assay [1] (Table 2, 72 hours); 0.34 µM in assay [3] (Table 2, 72 hours); 1.93 µM in assay [4] (Table 2, 72 hours); 1.56 µM in assay [6]; 0.35 µM in assay [7].
On to `CC(=NNc1nc2ccccc2[nH]1)c1ncccn1` [Ib-25], for which the IC50 in assay [1] (Table 2, 72 hours) was 0.22 µM; in assay [3] (Table 2, 72 hours), 0.63 µM; in assay [4] (Table 2, 72 hours) it was 0.42 µM; in assay [6], 0.96 µM; in assay [7], 0.2 µM.
Consider `CC(=NNc1nc2ccccc2o1)c1ncccn1` [Ib-27], for which the IC50 in assay [1] (Table 2, 72 hours) is 0.03 µM; in assay [3] (Table 2, 72 hours), 0.18 µM; in assay [4] (Table 2, 72 hours), 0.27 µM; in assay [6], 0.7 µM; in assay [7], 0.13 µM.
On to `CCn1c(NN=C(C)c2ccccn2)nc2ccccc21` [Ic-1, 1-(2-Pyridyl)-1-ethanone-1-(1-ethyl-1H-benzo[d]imidazol-2-yl)hydrazone], for which the IC50 in assay [1] (Homo sapiens, CA46, Table 3, 72 hours) was 0.68 µM; in assay [2] (Homo sapiens, K562, Table 3), 0.06 µM; in assay [3] (Homo sapiens, HeLa, Table 3, 72 hours), 0.19 µM; in assay [4] (Homo sapiens, HT-29, Table 3, 72 hours), 11.9 µM.
On to `CCCn1c(NN=C(C)c2ccccn2)nc2ccccc21` [Ic-2], for which the IC50 in assay [1] (Table 3, 72 hours) was 1.28 µM; in assay [2] (Table 3) it was 0.12 µM; in assay [3] (Table 3, 72 hours), 0.21 µM; in assay [4] (Table 3, 72 hours), 35.1 µM.
For the molecule `CC(=NNc1nc2ccccc2n1C1CC1)c1ccccn1` [Ic-6], the IC50 is 0.09 µM in assay [2] (Table 3); 0.4 µM in assay [3] (Table 3, 72 hours); 11.2 µM in assay [4] (Table 3, 72 hours).
For `CC(=NNc1nc2ccccc2n1Cc1ccccc1)c1ccccn1` [Ic-8], the IC50 is 3.58 µM in assay [1] (Table 3, 72 hours); 0.45 µM in assay [2] (Table 3); 0.13 µM in assay [3] (Table 3, 72 hours); 0.16 µM in assay [4] (Table 3, 72 hours).
